Laboratory results from patent US8212050B2, “Amidine compounds and herbicides” (Nippon Soda Co., Ltd., priority 2005, dated 2012).

Row | melting point | Compound
1 | 73 to 75 °C | C#CCOc1cc(N=C(C=NOC)N2CCCC2)c(F)cc1Cl [compound 190, 2-(4-chloro-2-fluoro-5-propargyloxyphenylimino)-2-(pyrrolidine-1-yl)acetaldehyde O-methyloxime]
2 | 160 to 163 °C | CCOC(=O)C(C)Oc1cc(N=C(C(N)=O)N2CCCC2)c(Cl)cc1Cl (centres unmarked) [compound 293, 2-[2,4-dichloro-5-(1-ethoxycarbonylethoxy)phenylimino]-2-(pyrrolidine-1-yl)acetamide]
